What was measured:
[1] = test system: cell-free eukaryotic translation system on the basis of a cell extract from Spodoptera frugiperda (Sf21) insect cells; experiment: Influence of DTT on expression of model proteins in batch and dialysis system (autoradiograph); assay type: biochemical; details: with Z-VAD-FMK, 48 h
Experimental: For this purpose, the influence of the reducing agent DTT on the synthesis performance of the batch and dialysis system with different model proteins was investigated.
The synthesis of the glycoprotein erythropoietin (N-terminally fused to a melittin signal sequence; Mel-EPO; 20.9 kDa, unglycosylated) and of ETB (49.3 kDa), luciferase (60.6 kDa), Mel-Hb-EGF-eYFP (51 kDa) and bacteriorhodopsin (26.9 kDa) was carried out in the batch (B) and dialysis system (D) with the addition of the caspase inhibitor (Z-VAD-FMK) without (−) and with (+) the addition of DTT in the translation buffer in the presence of ^14C-leucine for 48 h, 27° C. and 600 rpm.
Control=translation mixture without the addition of a DNA template.

[2] = test system: eukaryotic translation system on the basis of a cell extract from Spodoptera frugiperda (Sf21) insect cells; experiment: Influence of irreversible and reversible caspase inhibitors on SII-eYFP synthesis, relative fluorescence intensity; assay type: biochemical; details: inhibitor 30 μM, 48 h, dialysis mode, compared with control dialysis mixture without inhibitor
Experimental: Using the example of the fluorescent protein SII-eYFP, the influence of different irreversible caspase inhibitors (Z-VAD-FMK, Ac-VAD-CMK, Ac-DEVD-CMK (SEQ ID NO:1), Q-VD-OPh) and of a reversible caspase inhibitor (Ac-[…]-CHO (SEQ ID NO:10)) on the synthesis was investigated in a eukaryotic dialysis translation system.
The translation of SII-eYFP was carried out using the DNA template pIX3.0-SII-eYFP over 48 h at 600 rpm and 27° C. in the batch and dialysis modes in the presence of different irreversible and reversible caspase inhibitors. All inhibitors were used in a concentration of 30 μM. Following the completion of translation, the different mixtures were examined in the phosphorimager system (Typhoon TRIO+ imager, GE Healthcare) for their fluorescence intensity. For this purpose, 5 μl of each translation mixture was resuspended in 25 μl PBS. Subsequently, 25 μl of this sample was pipetted into a cavity of an Ibidi slide and measured, the excitation of the samples taking place at 488 nm and the emission being measured at 526 nm.

Compound | effect of absence of DTT on expression of model proteins (luciferase, SII-eYFP, ETB, Mel-Hb-EGF-eYFP, bacteriorhodopsin) [1] | glycosylation of Mel-EPO ([1]; with/without DTT) | increase of synthesis yield of fluorescing SII-eYFP [2] [%]
O[C@H](CS)[C@H](O)CS (racemic) [DTT, dithiothreitol] | no negative effect | complete glycosylation of the target protein could only be achieved in the presence of DTT | 
acetyl-Ala-Ala-Val-Ala-Leu-Leu-Pro-Ala-Val-Leu-Leu-Ala-Leu-Leu-Ala-Pro-Asp-Glu-Val-Asp-aldehyde (Ac-AAVALLPAVLLALLAPDEVD-aldehyde; SMILES CC(=O)N[C@@H](C)C(=O)N[C@@H](C)C(=O)N[C@H](C(=O)N[C@@H](C)C(=O)N[C@@H](CC(C)C)C(=O)N[C@@H](CC(C)C)C(=O)N1CCC[C@H]1C(=O)N[C@@H](C)C(=O)N[C@H](C(=O)N[C@@H](CC(C)C)C(=O)N[C@@H](CC(C)C)C(=O)N[C@@H](C)C(=O)N[C@@H](CC(C)C)C(=O)N[C@@H](CC(C)C)C(=O)N[C@@H](C)C(=O)N1CCC[C@H]1C(=O)N[C@@H](CC(=O)O)C(=O)N[C@@H](CCC(=O)O)C(=O)N[C@H](C(=O)N[C@H](C=O)CC(=O)O)C(C)C)C(C)C)C(C)C) |  |  | 53
CC(=O)N[C@@H](CC(=O)O)C(=O)N[C@@H](CCC(=O)O)C(=O)N[C@H](C(=O)N[C@@H](CC(=O)O)C(=O)CCl)C(C)C [Ac-DEVD-CMK, acetyl-Asp-Glu-Val-Asp-chloromethylketone] |  |  | 122
CC(C)C(NC(=O)c1ccc2ccccc2n1)C(=O)NC(CC(=O)O)C(=O)COc1c(F)cccc1F (stereo not drawn) [Q-VD-OPh, N-(2-quinolyl)-Val-Asp-(2,6-difluorophenoxy)-methylketone] |  |  | 77
